Results published in patent publication US9234000B2, “Benzylamine derivatives as inhibitors of plasma kallikrein” (KalVista Pharmaceuticals Limited, priority 2011, dated 2016).
Like-named read-outs stand apart in the source and are kept apart here.

Experiments:
[1] = molecular target: Human KLK1 (Homo sapiens (Human), UniProt P06870); experiment: Determination of the IC50 for KLK1; format: biochemical; conditions: Human KLK1, 37° C., substrate H-DVal-Leu-Arg-AFC
Method: Determination of the IC50 for KLK1
(§1) KLK1 inhibitory activity in vitro was determined using standard published methods (see e.g. Johansen et al., Int. J. Tiss. Reac. 1986, 8, 185; Shori et al., Biochem. Pharmacol., 1992, 43, 1209; Stürzebecher et al., Biol. Chem. Hoppe-Seyler, 1992, 373, 1025). Human KLK1 (Callbiochem) was incubated at 37° C. with the fluorogenic substrate H-DVal-Leu-Arg-AFC and various concentrations of the test compound. Residual enzyme activity (initial rate of reaction) was determined by measuring the change in optical absorbance at 410 nm and the IC50 value for the test compound was determined.

[2] = molecular target: Human plasma kallikrein (Homo sapiens (Human), UniProt P03952); experiment: Determination of the IC50 for plasma kallikrein; format: biochemical; conditions: 37° C., read-out: IC50 (human PKal)
Human plasma kallikrein, sequence (P03952 391-638): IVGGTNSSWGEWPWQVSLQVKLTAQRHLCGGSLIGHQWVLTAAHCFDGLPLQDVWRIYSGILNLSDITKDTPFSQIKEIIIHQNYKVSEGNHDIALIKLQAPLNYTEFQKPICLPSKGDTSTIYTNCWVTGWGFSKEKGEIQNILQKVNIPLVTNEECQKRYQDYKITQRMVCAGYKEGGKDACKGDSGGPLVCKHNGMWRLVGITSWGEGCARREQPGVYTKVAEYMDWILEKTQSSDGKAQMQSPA
Human plasma kallikrein, sequence (P03952 20-390 partner): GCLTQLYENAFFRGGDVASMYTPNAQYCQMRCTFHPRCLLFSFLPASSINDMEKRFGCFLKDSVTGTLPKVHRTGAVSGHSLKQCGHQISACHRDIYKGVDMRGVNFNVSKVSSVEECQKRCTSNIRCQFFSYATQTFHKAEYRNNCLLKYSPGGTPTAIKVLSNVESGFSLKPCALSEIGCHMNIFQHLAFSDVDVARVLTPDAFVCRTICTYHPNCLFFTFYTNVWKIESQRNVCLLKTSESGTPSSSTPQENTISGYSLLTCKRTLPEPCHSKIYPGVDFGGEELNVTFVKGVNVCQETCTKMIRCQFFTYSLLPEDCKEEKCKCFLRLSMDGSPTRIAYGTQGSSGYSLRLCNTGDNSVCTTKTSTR
Method: Determination of the IC50 for Plasma Kallikrein
as §1, with “Plasma kallikrein” for “KLK1”, “Stiirzebecher” for “Stürzebecher”, “plasma kallikrein (Protogen)” for “KLK1 (Callbiochem)”, “H-DPro-Phe-Arg-AFC” for “H-DVal-Leu-Arg-AFC”

Human KLK1, sequence (P06870 25-262): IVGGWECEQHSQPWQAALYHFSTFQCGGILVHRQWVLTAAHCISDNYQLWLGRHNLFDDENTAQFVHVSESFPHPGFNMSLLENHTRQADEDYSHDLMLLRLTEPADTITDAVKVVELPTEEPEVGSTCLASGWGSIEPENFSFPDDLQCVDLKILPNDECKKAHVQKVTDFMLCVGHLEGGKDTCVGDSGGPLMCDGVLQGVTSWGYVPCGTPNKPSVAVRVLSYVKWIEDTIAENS

| SMILES | IC50 ([1]; Table 13) [µM] | IC50 ([2]; substrate H-DPro-Phe-Arg-AFC) [nM] | IC50 ([1]; Table 12) [µM] | IC50 ([2]; fluorogenic substrate H-DPro-Phe-Arg-AFC) [nM] |
| --- | --- | --- | --- | --- |
| CCOc1ccc(C[C@@H](NC(=O)c2cccnc2C)C(=O)N[C@@H](Cc2ccccc2)C(=O)NCc2ccc(CN)cc2)cc1 [Example 105, N-[(R)-1-[(S)-1-(4-Aminomethyl-benzylcarbamoyl)-2-phenyl-ethylcarbamoyl]-2-(4-ethoxy-phenyl)-ethyl]-2-methyl-nicotinamide] | > 10 | 185 |  |  |
| CCOc1ccc(C[C@@H](NC(=O)NCc2ccccc2)C(=O)N[C@@H](Cc2ccccc2)C(=O)NCc2ccc(CN)cc2)cc1 [Example 68, (R)-N-[(S)-1-(4-Aminomethyl-benzylcarbamoyl)-2-phenyl-ethyl]-2-(3-benzyl-ureido)-3-(4-ethoxy-phenyl)-propionamide] | > 10 | 861 |  |  |
| CCOc1ccc(C[C@@H](NC(=O)CCc2ccccc2)C(=O)N[C@@H](Cc2ccccc2)C(=O)NCc2ccc(CN)cc2)cc1 [Example 86, (S)-N-(4-Aminomethyl-benzyl)-2-[(R)-3-(4-ethoxy-phenyl)-2-(3-phenyl-propionylamino)-propionylamino]-3-phenyl-propionamide] | > 10 | 423 |  |  |
| CCOc1ccc(C[C@@H](NC(=O)c2ccncc2)C(=O)N[C@@H](Cc2ccccc2)C(=O)NCc2ccc(CN)c(F)c2)cc1 [Example 167, N-[(R)-1-[(S)-1-(4-Aminomethyl-3-fluoro-benzylcarbamoyl)-2-phenyl-ethylcarbamoyl]-2-(4-ethoxy-phenyl)-ethyl]-isonicotinamide] | > 10 | 80 |  |  |
| CCOc1ccc(C[C@@H](NC(=O)NC(C)C)C(=O)N[C@@H](Cc2ccccc2)C(=O)NCc2ccc(CN)cc2)cc1 [Example 77, (R)-N-[(S)-1-(4-Aminomethyl-benzylcarbamoyl)-2-phenyl-ethyl]-3-(4-ethoxy-phenyl)-2-(3-isopropyl-ureido)-propionamide] | > 10 | 1960 |  |  |
| CCOc1ccc(C[C@@H](NC(=O)c2ccccc2)C(=O)N[C@@H](Cc2ccccc2)C(=O)NCc2ccc(CN)c(C(F)(F)F)c2)cc1 [Example 156, N-[(R)-1-[(S)-1-(4-Aminomethyl-3-trifluoromethyl-benzylcarbamoyl)-2-phenyl-ethylcarbamoyl]-2-(4-ethoxy-phenyl)-ethyl]-benzamide] | > 10 | 1080 |  |  |
| CCOc1ccc(C[C@@H](NC(=O)c2cccc(C(F)(F)F)c2)C(=O)N[C@@H](Cc2ccccc2)C(=O)NCc2ccc(CN)cc2)cc1 [Example 90, N-[(R)-1-[(S)-1-(4-Aminomethyl-benzylcarbamoyl)-2-phenyl-ethylcarbamoyl]-2-(4-ethoxy-phenyl)-ethyl]-3-trifluoromethyl-benzamide] | > 10 | 276 |  |  |
| NCc1ccc(CNC(=O)[C@H](Cc2ccccc2)NC(=O)[C@@H](Cc2ccc(Cl)cc2)NC(=O)c2ccccc2)cc1 [Example 127, N-[(R)-1-[(S)-1-(4-Aminomethyl-benzylcarbamoyl)-2-phenyl-ethylcarbamoyl]-2-(4-chloro-phenyl)-ethyl]-benzamide] | > 10 | 521 |  |  |
| CCOc1ccc(C[C@@H](NC(=O)c2ccccn2)C(=O)N[C@@H](Cc2ccc(Cl)c(Cl)c2)C(=O)NCc2ccc(CN)cc2)cc1 [Example 165, Pyridine-2-carboxylic acid [(R)-1-[(S)-1-(4-aminomethyl-benzylcarbamoyl)-2-(3,4-dichloro-phenyl)-ethylcarbamoyl]-2-(4-ethoxy-phenyl)-ethyl]-amide] | > 10 | 70 |  |  |
| CCOc1ccc(C[C@@H](NC(=O)c2cnc3cc(Cl)ccc3c2)C(=O)N[C@@H](Cc2ccccc2)C(=O)NCc2ccc(CN)cc2)cc1 [Example 115, 7-Chloro-quinoline-3-carboxylic acid [(R)-1-[(S)-1-(4-aminomethyl-benzylcarbamoyl)-2-phenyl-ethylcarbamoyl]-2-(4-ethoxy-phenyl)-ethyl]-amide] | 9 | 417 |  |  |
| CCOc1ccc(C[C@@H](NC(=O)CC)C(=O)N[C@@H](Cc2cccnc2)C(=O)NCc2ccc(CN)cc2)cc1 [Example 170, (R)-N-[(S)-1-(4-Aminomethyl-benzylcarbamoyl)-2-pyridin-3-yl-ethyl]-3-(4-ethoxy-phenyl)-2-propionylamino-propionamide] | > 10 | 51 |  |  |
| CCOc1ccc(C[C@@H](NC(=O)CNC(=O)c2ccccc2)C(=O)N[C@@H](Cc2ccccc2)C(=O)NCc2ccc(CN)cc2)cc1 [Example 98, N-{[(R)-1-[(S)-1-(4-Aminomethyl-benzylcarbamoyl)-2-phenyl-ethylcarbamoyl]-2-(4-ethoxy-phenyl)-ethylcarbamoyl]-methyl}-benzamide] | 5.1 | 576 |  |  |
| CCOc1ccc(C[C@@H](NC(=O)Nc2ccc(Cl)cc2)C(=O)N[C@@H](Cc2ccccc2)C(=O)NCc2ccc(CN)cc2)cc1 [Example 102, (R)-N-[(S)-1-(4-Aminomethyl-benzylcarbamoyl)-2-phenyl-ethyl]-2-[3-(4-chloro-phenyl)-ureido]-3-(4-ethoxy-phenyl)-propionamide] | 9 | 10000 |  |  |
| CCOc1ccc(C[C@@H](NC(=O)c2sccc2OC)C(=O)N[C@@H](Cc2ccccc2)C(=O)NCc2ccc(CN)cc2)cc1 [Example 122, 3-Methoxy-thiophene-2-carboxylic acid [(R)-1-[(S)-1-(4-aminomethyl-benzylcarbamoyl)-2-phenyl-ethylcarbamoyl]-2-(4-ethoxy-phenyl)-ethyl]-amide] | 4.8 | 519 |  |  |
| CCOc1ccc(C[C@@H](NC(=O)c2ccc3nc(C)ccc3c2)C(=O)N[C@@H](Cc2ccccc2)C(=O)NCc2ccc(CN)cc2)cc1 [Example 114, 2-Methyl-quinoline-6-carboxylic acid [(R)-1-[(S)-1-(4-aminomethyl-benzylcarbamoyl)-2-phenyl-ethylcarbamoyl]-2-(4-ethoxy-phenyl)-ethyl]-amide] | > 10 | 427 |  |  |
| CCOc1ccc(C[C@@H](NC(=O)c2ccncc2)C(=O)N[C@@H](Cc2ccc(Cl)c(Cl)c2)C(=O)NCc2ccc(CN)cc2)cc1 [Example 171, N-[(R)-1-[(S)-1-(4-Aminomethyl-benzylcarbamoyl)-2-(3,4-dichloro-phenyl)-ethylcarbamoyl]-2-(4-ethoxy-phenyl)-ethyl]-isonicotinamide] | 9.4 | 123 |  |  |
| CCOc1ccc(C[C@@H](NC(=O)c2nc(C)oc2C)C(=O)N[C@@H](Cc2ccccc2)C(=O)NCc2ccc(CN)cc2)cc1 [Example 113, 2,5-Dimethyl-oxazole-4-carboxylic acid [(R)-1-[(S)-1-(4-aminomethyl-benzylcarbamoyl)-2-phenyl-ethylcarbamoyl]-2-(4-ethoxy-phenyl)-ethyl]-amide] | > 10 | 455 |  |  |
| COc1ccc(C[C@@H](NC(=O)c2ccccc2)C(=O)N[C@@H](Cc2ccccc2)C(=O)NCc2ccc(CN)cc2)cn1 [Example 137, N-[(R)-1-[(S)-1-(4-Aminomethyl-benzylcarbamoyl)-2-phenyl-ethylcarbamoyl]-2-(6-methoxy-pyridin-3-yl)-ethyl]-benzamide] | > 10 | 7540 |  |  |
| COC(=O)CN[C@H](CC1CCCCC1)C(=O)N[C@@H](Cc1ccccc1)C(=O)NCc1ccc(CN)cc1 [Example 46, {(R)-1-[(S)-1-(4-Aminomethyl-benzylcarbamoyl)-2-phenyl-ethylcarbamoyl]-2-cyclohexyl-ethylamino}-acetic acid methyl ester] |  |  | > 10 | 1200 |
| CCOc1ccc(C[C@@H](NC(=O)c2cc(C)nn2C)C(=O)N[C@@H](Cc2ccccc2)C(=O)NCc2ccc(CN)cc2)cc1 [Example 82, 2,5-Dimethyl-2H-pyrazole-3-carboxylic acid [(R)-1-[(S)-1-(4-aminomethyl-benzylcarbamoyl)-2-phenyl-ethylcarbamoyl]-2-(4-ethoxy-phenyl)-ethyl]-amide] | > 10 | 539 |  |  |
| CCOc1ccc(C[C@@H](NC(=O)c2ccnc(OC)c2)C(=O)N[C@@H](Cc2ccccc2)C(=O)NCc2ccc(CN)cc2)cc1 [Example 123, N-[(R)-1-[(S)-1-(4-Aminomethyl-benzylcarbamoyl)-2-phenyl-ethylcarbamoyl]-2-(4-ethoxy-phenyl)-ethyl]-2-methoxy-isonicotinamide] | > 10 | 214 |  |  |
| CCOc1ccc(C[C@@H](NC(=O)c2ccc(C)cc2)C(=O)N[C@@H](Cc2ccccn2)C(=O)NCc2ccc(CN)cc2)cc1 [Example 164, N-[(R)-1-[(S)-1-(4-Aminomethyl-benzylcarbamoyl)-2-pyridin-2-yl-ethylcarbamoyl]-2-(4-ethoxy-phenyl)-ethyl]-4-methyl-benzamide] | > 10 | 50 |  |  |
| CCOc1ccc(C[C@@H](NC(=O)c2cnc(Cl)c(Cl)c2)C(=O)N[C@@H](Cc2ccccc2)C(=O)NCc2ccc(CN)cc2)cc1 [Example 107, N-[(R)-1-[(S)-1-(4-Aminomethyl-benzylcarbamoyl)-2-phenyl-ethylcarbamoyl]-2-(4-ethoxy-phenyl)-ethyl]-5,6-dichloro-nicotinamide] | 7.5 | 133 |  |  |
